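The compound was tested at five concentrations on cells cultured in 96-well plates, with a 48-hour exposure period. GI50: concentration for 50% inhibition of growth. TGI denotes the concentration required for complete inhibition of growth.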
Experiments:
Assay in all cases: DTP human tumour cell line panel, 48 h
SNB-19 CNS = system: SNB-19 CNS
SF-295 CNS = system: SF-295 CNS
K-562 leukemia = system: K-562 leukemia
NCI-H23 lung = system: NCI-H23 lung
HOP-62 NSCLC = system: HOP-62 NSCLC
SW-620 colon = system: SW-620 colon
SN12C renal = system: SN12C renal
PC-3 prostate = system: PC-3 prostate

Row | SMILES | GI50 (SNB-19 CNS) [µM] | TGI (SNB-19 CNS) [µM] | GI50 (SF-295 CNS) [µM] | TGI (SF-295 CNS) [µM] | GI50 (K-562 leukemia) [µM] | TGI (K-562 leukemia) [µM] | GI50 (NCI-H23 lung) [µM] | TGI (NCI-H23 lung) [µM] | GI50 (HOP-62 NSCLC) [µM] | TGI (HOP-62 NSCLC) [µM] | GI50 (SW-620 colon) [µM] | TGI (SW-620 colon) [µM] | GI50 (SN12C renal) [µM] | TGI (SN12C renal) [µM] | GI50 (PC-3 prostate) [µM] | TGI (PC-3 prostate) [µM]
1 | O=C1c2c(F)c(F)c(F)c(F)c2C(=O)N1c1ccc(F)cc1F | 16.8 | 39.8 | 13.7 | 46.4 | 2.58 | > 33.9 | 3.82 | 9.82 | 15.2 | 31.4 | 2.11 | 7.22 | 2.95 | 10.1 | 6.21 | 27.2
2 | O=C1CSC(=S)N1/N=C/c1ccc(Cl)c([N+](=O)[O-])c1 |  | 60.8 |  | 68.5 |  | > 100 |  | 31.9 |  | 86.3 |  | > 100 |  | 56.3 |  | 65.6
3 | O=C(Nc1cccc(C(F)(F)F)c1)Nc1cccc(C(F)(F)F)c1 | 0.658 | 9.93 | 0.323 | 1.57 | 0.431 | 10.3 | 0.349 | 1.97 | 1.4 | 3.64 | 0.798 | 6.88 | 0.923 | 5.24 | 0.374 | 12.5
4 | CN(C)CC(O)c1ccc(/C=C/c2ccc(Cl)cc2)cc1 (stereo not drawn) | 2.88 | 10.4 | 1.53 | 3 | 1.14 | 3.55 | 1.62 | 3.19 | 3.13 | 14 | 1.6 | 2.95 | 10.4 | 22.9 | 1.42 | 3.09
5 | CN1CCN(c2ccc(Nc3ncc(Cl)c(NC[C@@H]4CCCO4)n3)cc2)CC1 | 3.69 | > 100 | 1.26 | 26.3 | 2.94 | > 100 | 0.987 | 11.6 | 0.705 | 4.61 | 0.538 | > 100 | 1.13 | > 100 | 2.24 | > 100
6 | COC(=O)/C=C/c1cc(OC(C)=O)c2c(c1)[C@@H](C(=O)OC)[C@H](c1ccc(OC(C)=O)c(OC(C)=O)c1)O2 | 0.431 | > 100 | 0.285 | 11.4 | 0.0378 | > 49.2 | 0.0912 | 29.7 | 0.0779 | 63.9 | 0.0418 | > 100 | 0.121 | 99.7 | 0.316 | 54.7
7 | COC(=O)[C@]12CC[C@@H](C)[C@H](C)[C@@H]1C1=CC[C@@H]3[C@@]4(C)C[C@@H](O)[C@H](O)[C@@](C)(CO)[C@@H]4[C@H](O)C[C@@]3(C)[C@]1(C)CC2 | 13.2 | 38.9 | 15 | 35.4 | 12.7 | 45.7 | 16.8 | 36.6 | 20.3 | 42.7 | 18.8 | 39.4 | 14.5 | 30.6 | 3.63 | 15.6
8 | Cc1ccc(-c2nc(N3CCNCC3)c3oc(-c4ccc(C)cc4)nc3n2)cc1 | 2.6 | 7.02 | 12.1 | 52.6 | 1.81 | 4.51 |  |  | 10.1 | > 100 | 1.8 | 4.02 | 1.88 | 3.61 | 1.77 | 3.43
9 | NC(N)=NS(=O)(=O)c1ccc(N=Nc2c(O)c(C(=O)O)cc3ccccc23)cc1 |  |  |  | > 100 |  | > 100 |  | > 100 |  | > 100 |  | > 100 |  | > 100 |  | > 100
10 | S=P1(Oc2ccccc2)NNP2(=NP(N3CC3)(N3CC3)=NP(N3CC3)(N3CC3)=N2)NN1 (stereo not drawn) |  | > 100 |  |  |  | > 100 |  | > 100 |  | > 100 |  | > 100 |  | > 100 |  | 
11 | CC#Cc1ccc(-c2ccccc2)s1 |  | > 100 |  | > 100 |  |  |  | > 100 |  |  |  | > 100 |  | > 100 |  | > 100
12 | C=C(C)C12OC1[C@@]1(C)C(=CC2=O)CCC(O)[C@@H]1C (stereo partly drawn) |  | 33.2 |  | > 100 |  |  |  | 16.2 |  | 11.7 |  | > 100 |  | 11.5 |  | 27.8
13 | C#Cc1cccc(Nc2nc3cc([N+](=O)[O-])ccc3nc2Nc2ccc(O)cc2)c1 | 1.78 | 3.19 |  |  | 2.1 | 6.41 |  |  | 1.67 | 3.35 | 1.79 | 3.87 |  |  | 1.65 | 3.91
14 | Cc1nnc2ccnn2c1C | > 100 | > 100 | > 100 | > 100 | > 100 | > 100 |  |  | > 100 | > 100 | > 100 | > 100 | > 100 | > 100 | > 100 | > 100

Source: PubChem BioAssay (NCI)
